Reference: patent publication US11279736B2, “Conformationally-preorganized, MiniPEG-containing gamma-peptide nucleic acids” (CARNEGIE MELLON UNIVERSITY, priority 2011, dated 2022)
[RMPγPNA-N] = PNA unit with R-MP-gamma backbone modification (N: the base)

Experiments:
complementary DNA strand = assay: UV-melting / van't Hoff analysis of PNA-DNA hybrid duplexes; format: binding; conditions: PNA-DNA duplex; for −ΔG° / −ΔH° / −ΔTS°: averages of three trials
Protocol: (§1) FIGS. 2A-2B illustrate UV-melting profiles of PNA-DNA (FIG. 2A) and PNA-RNA (FIG. 2B) hybrid duplexes at a strand concentration of […] each in 10 mM sodium phosphate buffer at pH 7.4. While both the heating and cooling runs were performed because they both have nearly identical profiles UV-melting for only the heating runs are shown.
UV-melting experiments were performed to determine the effect of MP on the thermal stability of PNA oligomers following hybridization to DNA or an RNA. FIG. 3A illustrates that the incorporation of a single miniPEG side-chain stabilized a PNA-DNA duplex by 4° C. […] However, increase in thermal stability tapers off to a value of about 2.3° C. per unit for the fully-modified oligomer, that is an oligomer made up of R-MP-γPNA groups only (e.g., PNA5).
(§2) Further insights related to the contribution of miniPEG to the stability of the PNA-DNA duplex was obtained from van′t Hoff analysis. Data in Table 2 show the thermodynamic parameters associated with hybridization of PNA1 through 5 to a complementary DNA or RNA strand.

complementary RNA strand = assay: UV-melting / van't Hoff analysis of PNA-RNA hybrid duplexes; format: binding
Protocol: as §1
A similar pattern is observed for a R-MP-γPNA-RNA duplex, but the observed increase in thermal stability is lower for a R-MP-γPNA-RNA duplex as compared to a R-MP-γPNA-DNA duplex (FIG. 3B). The enhancement in thermal stability of a R-MP-γPNA-RNA duplex is only 3° C. for the first R-MP-γPNA-monomer that is incorporated into the PNA oligomer and this gain in thermal stability reduces to about 1.2° C. per R-MP-γPNA monomer for an oligomer made entirely R-MP-γPNA (PNA5). In contrast the gain in thermal stability is about 2.3° C./unit for R-MP-γPNA-DNA duplexes.
as §2

[1] = tested on: immobilized complementary DNA; assay: Surface plasmon resonance (SPR) hybridization kinetics; format: binding; conditions: for association rate constant ka / dissociation rate constant kd: 1:1 binding model; for dissociation rate constant kd: † values approach limits of detection
Protocol: FIG. 4 illustrates surface plamon resonance (SPR) sensorgrams (solid black lines) and fits (dotted lines) for hybridization of PNA probes to immobilized complementary DNA. Solutions contained 30 nM PNA. Error bars at t=420 sec illustrate standard deviations for three separate trials.
Surface plasmon resonance (SPR) analysis is used to study the hybridization kinetics of ^R-MPγPNA-DNA and ^R-MPγPNA-RNA duplexes. Briefly, SPR was performed as follows. According to one embodiment, the PNA probe was immobilized to the chip while the DNA target was captured from solution. In another embodiment, a biotinylated version of the DNA target is immobilized on a streptavidin-conjugated, carboxymethylated dextran chip at a relatively low surface density (ca. 100 response units) of DNA targets to limit mass transport effects on the association kinetics. Solutions containing 10-50 nM PNA oligomers are allowed to flow over the chip for about 420 seconds, at which point the flow is switched to a PNA-free buffer to allow net dissociation of the hybridized PNA.

[2] = Temperature-dependent CD measurements of PNA oligomers; format: physicochemical; conditions: 80° C.; 5 μM oligomer, 10 mM sodium phosphate buffer pH 7.4
Protocol: FIG. 1A illustrates CD spectra of PNA5 and PNA2 (Inset) as a function of temperature. Melting transition (Tm) of PNA2 through 5 as determined by CD, monitored at 260 nm. The oligomer concentration was 5 μM, prepared in 10 mM sodium phosphate buffer at pH 7.4.

[3] = tested on: DNA: 3′-[…]-5, X = A, C, G, T (SEQ ID NO: 11); assay: Sequence mismatch discrimination, thermal stability of PNA-DNA duplexes; format: binding
Protocol: (§3) CD, NMR, and X-ray data have shown that γPNAs derived from L-amino acids adopt a right-handed helix, and that the helix becomes more rigid as more γ-chiral units are added in the backbone. One would therefore expect a fully-modified PNA5 to hybridize to DNA and RNA targets with greater sequence selectivity than PNA1. To verify this hypothesis, thermal stabilities of PNA5-DNA and PNA5-RNA duplexes containing perfectly-matched (PM) and single-base mismatched (MM) targets were determined and compared to those from an earlier study with PNA1-DNA and PNA1-RNA duplexes. […] The ΔTm ranges from −17 to −21° C. for PNA5-DNA and −16 to −20° C. for PNA5-RNA containing a single-base mismatch (X=C, G, T), as compared to −10 to −14° C. for PNA1-DNA and −11 to −18° C. for PNA1-RNA duplex (Table 4). The level of sequence discrimination is greater for PNA5-DNA than for PNA1-DNA, and similar, if not slightly better, for PNA5-RNA as compared to PNA1-RNA.

[4] = tested on: RNA: 3′-CGUACAXACU-5, X = A, C, G, U (SEQ ID NO: 12); assay: Sequence mismatch discrimination, thermal stability of PNA-RNA duplexes; format: binding
Protocol: as §3

[5] = PNA-RNA duplex, 298 K, UV-melting curve fitting

Substance: H-GCATGTTTGA-NH2 [PNA2] (PNA; 1 R-MP-gamma unit; C-terminal amide; modified_base (6)..(6) R-MP-gamma-backbone modified nucleotide)
- Kd (complementary DNA strand; 298 K, UV melting): 0.32 nM
- −ΔG° (complementary DNA strand; 298 K): 12.9 ± 0.24 kcal/mol
- −ΔH° (complementary DNA strand; 298 K): 76.2 ± 4.3 kcal/mol
- −ΔTS° (complementary DNA strand; 298 K): 62.9 ± 3.82 kcal/mol
- Kd (complementary RNA strand; [5]): 0.0012 nM
- −ΔG° (complementary RNA strand; [5]): 16.3 kcal/mol
- −ΔH° (complementary RNA strand; [5]): 79.6 kcal/mol
- −ΔTS° (complementary RNA strand; [5]): 55.4 kcal/mol
- association kinetics relative to the unmodified PNA ([1]; SPR, 30 nM PNA): approximately twice as fast
- association rate constant ka ([1]; SPR): 970000 M⁻¹ s⁻¹
- dissociation rate constant kd ([1]; SPR): 0.00041 s⁻¹
- Kd ([1]; SPR, ratio of dissociation and association rate constants, † values uncertain, read-out: equilibrium dissociation constant Kd): 0.42 nM
- CD profile / base-stacking at high temperature [2]: completely denatured

Substance: H-GCATGTTTGA-NH2 [PNA5] (all [RMPγPNA-N], methylation of C not given here; C-terminal amide)
- increase in thermal stability per miniPEG unit (complementary DNA strand; UV-melting): about 2.3 °C per unit
- −ΔG° (complementary DNA strand; 298 K): 18.6 ± 0.48 kcal/mol
- −ΔH° (complementary DNA strand; 298 K): 88.9 ± 2.63 kcal/mol
- −ΔTS° (complementary DNA strand; 298 K): 70.3 ± 2.39 kcal/mol
- gain in thermal stability per R-MP-γPNA monomer (complementary RNA strand; PNA-RNA duplex, UV-melting): about 1.2 °C per R-MP-γPNA monomer
- −ΔG° (complementary RNA strand; [5]): 18.6 kcal/mol
- −ΔH° (complementary RNA strand; [5]): 87.2 kcal/mol
- −ΔTS° (complementary RNA strand; [5]): 68.6 kcal/mol
- differential Tm (ΔTm), RNA versus DNA binding (complementary RNA strand; duplex with RNA compared to duplex with DNA): identical thermal stability
- association rate constant ka ([1]; SPR): 800000 M⁻¹ s⁻¹
- dissociation rate constant kd ([1]; SPR): 0.4 × 10^−4 ^† s^−1
- SPR-derived Kd relative to Kd determined by UV melting experiments ([1]; Table 3 versus Table 2, DNA target): 1200 fold
- Tm ([3]; C<>T mismatch): 47 °C
- ΔTm between the perfect match and mismatch ([3]; C<>T mismatch): (−21) ° C.
- Tm ([3]; G<>T mismatch): 48 °C
- ΔTm between the perfect match and mismatch ([3]; G<>T mismatch): (−20) ° C.
- Tm ([3]; T(U)<>T mismatch): 51 °C
- ΔTm between the perfect match and mismatch ([3]; T(U)<>T mismatch): (−17) ° C.
- Tm ([3]; X = A (A-T perfect match)): 68 °C
- ΔTm, single-base mismatch (X=C, G, T) ([3]; range over mismatches): −17 to −21 °C
- Tm ([4]; C<>T mismatch): 48 °C
- ΔTm between the perfect match and mismatch ([4]; C<>T mismatch): (−20) ° C.
- Tm ([4]; G<>T mismatch): 52 °C
- ΔTm between the perfect match and mismatch ([4]; G<>T mismatch): (−16) ° C.
- Tm ([4]; T(U)<>T mismatch): 48 °C
- ΔTm between the perfect match and mismatch ([4]; T(U)<>T mismatch): (−20) ° C.
- Tm ([4]; X = A (A-T perfect match)): 68 °C
- ΔTm, single-base mismatch (X=C, G, T) ([4]; range over mismatches): −16 to −20 °C
- CD profile / base-stacking at high temperature [2]: distinct CD profile
